Data: patent US20260124173A1, “THERAPEUTIC ALKALOID COMPOUNDS” (Sensorium Therapeutics, Inc., priority 2023, published 2026)
Read-outs that look alike come from different tables or passages of the source.

What was measured:
[1] = in vivo; cited from earlier work
SERT = molecular target: T1, SERT (Homo sapiens, UniProt P31645); experiment: SERT inhibition assay (Neurotransmitter Transportation Fluorescence assay, stable 5 HTT cells); format: cell-based
T1 construct: expressed in transfected cells
T1 sequence (P31645 whole entry, species assumed): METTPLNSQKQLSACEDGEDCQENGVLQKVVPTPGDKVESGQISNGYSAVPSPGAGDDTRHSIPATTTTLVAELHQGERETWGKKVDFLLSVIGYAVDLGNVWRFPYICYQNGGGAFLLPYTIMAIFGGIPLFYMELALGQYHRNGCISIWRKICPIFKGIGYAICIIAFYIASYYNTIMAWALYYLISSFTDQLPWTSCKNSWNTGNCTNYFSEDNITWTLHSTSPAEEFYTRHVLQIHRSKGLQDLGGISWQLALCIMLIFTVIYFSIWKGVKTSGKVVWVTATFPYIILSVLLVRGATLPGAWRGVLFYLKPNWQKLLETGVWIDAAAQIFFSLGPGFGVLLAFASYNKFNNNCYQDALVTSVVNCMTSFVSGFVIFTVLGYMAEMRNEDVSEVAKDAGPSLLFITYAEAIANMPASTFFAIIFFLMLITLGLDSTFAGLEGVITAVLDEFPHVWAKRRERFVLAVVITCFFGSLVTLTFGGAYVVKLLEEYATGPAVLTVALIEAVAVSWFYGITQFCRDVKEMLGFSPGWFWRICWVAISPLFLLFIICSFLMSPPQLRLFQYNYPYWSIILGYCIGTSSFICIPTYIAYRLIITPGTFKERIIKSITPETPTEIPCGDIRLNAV
Procedure: SERT inhibition can be measured using a Neurotransmitter Transportation Fluorescence assay. Briefly, stable 5 HTT cells were prepared in a 384 microwell plate. Compounds were prepared in assay buffer (20 mM HEPES, 0.1% BSA). The compounds were added to the plated cells and incubated for 30 minutes at 37° C. 25 μL of dye solution (Molecular Devices Neurotransmitter Transporter Uptake Assay Kit) is added per well and incubated for 30 minutes at 37° C. The plates are then read on a plate reader.

[2] = Intestinal S9 metabolic stability, human; format: in vitro ADME
Procedure: (§1) A master solution was prepared according to the Table B2 below.
(§2) Add 222.5 μL of master solution and 25 μL of 10 mM NADPH solution to the incubation plates. Pre-warm for 10 min. The reaction was started with the addition of 2.5 μL of 100 μM control compound or test compound solutions. Verapamil, Midazolam and Testosterone were used as positive control in this study. The final concentration of control compounds and test compounds was 1 μM. Aliquots of 25 μL were taken from the reaction solution at 0.5, 5, 15, 30, 45 and 60 minutes. The reaction was stopped by the addition of 5 volumes of cold acetonitrile with IS (100 nM alprazolam, 200 nM caffeine and 100 nM tolbutamide). Samples were centrifuged at 3, 220 g for 30 minutes. Aliquot of 100 μL of the supernatant was mixed with 100 μL of ultra-pure H2O and then used for LC-MS/MS analysis.
(§3) All calculations were carried out using Microsoft Excel. Peak areas were determined from extracted ion chromatograms. The slope value, k, was determined by linear regression of the natural logarithm of the remaining percentage of the parent drug vs. incubation time curve. The in vitro half-life (in vitro t1/2) was determined from the slope value:
(§4) Conversion of the in vitro t1/2 (min) into the in vitro intrinsic clearance (in vitro CLint, in uL/min/mg protein) was done using the following equation (mean of duplicate determinations): […]
The metabolic stability of Compound 243 was tested in human, monkey, dog and rat (2 replicate measurement). For comparison, verapamil was tested in human and monkey (2 replicates), midazolam was tested in dog (2 replicates), and testosterone was tested in rat (2 replicates).

[3] = format: in vitro ADME, dog
Procedure: as §1, §2, §3, §4

[4] = Intestinal S9 metabolic stability, rat; format: in vitro ADME
Procedure: as §1, §2, §3, §4

## COc1ccc([C@@]23CCC(=O)C[C@@H]2N(C)CC3)cc1OC [Compound 001, (−)-Mesembrine]
[1]
  half-life in plasma: less than 2 hours

## COc1ccc([C@@]23CC=C(C)C[C@@H]2N(C)CC3)cc1OC [Compound 242, (3aS,7aS)-3a-(3,4-dimethoxyphenyl)-1,6-dimethyl-2,3,3a,4,7,7a-hexahydro-1H-indole]
SERT; Table B1
  IC50: < 50 nM

## COc1ccc([C@@]23CCC(C)=C[C@@H]2N(C)CC3)cc1OC [drawing 204]
SERT
  IC50: < 50 nM

## COc1ccc([C@@]23CCC(C)=C[C@@H]2N(C)CC3)cc1OC [drawing 205]
SERT
  IC50: < 50 nM

## COc1ccc([C@@]23CC=C(C)C[C@@H]2N(C)CC3)cc1OC [drawing 203]
SERT
  IC50: < 50 nM

## COc1ccc([C@@]23CCC(C)=C[C@@H]2N(C)CC3)cc1OC [Compound 243, (3aS,7aS)-3a-(3,4-dimethoxyphenyl)-1,6-dimethyl-2,3,3a,4,5,7a-hexahydro-1H-indole]
SERT; Table B1
  IC50: < 50 nM
[2]
  median half-life, times greater than verapamil: 33 times
[2]; human, 1 µM
  median CLint (micrograms/min/mg protein), times greater for verapamil than Compound 243: more than 23 times
[2]; human, s9
  half-life at 1 µM: > 24 h
[3]
  median half-life, times greater than the half-life of midazolam: more than 168 times
[3]; dog, 1 µM
  median CLint (micrograms/min/mg protein), times greater for midazolam than Compound 243: more than 164 times
[4]; 1 µM
  median CLint (micrograms/min/mg protein), times greater for testosterone than Compound 243: about 30 times
[4]; Compound 243 versus testosterone
  median half-life, times greater than the half-life of testosterone: about 30 times
